# Laboratory results from US20200172913A1, “PEPTIDES AND NANOPARTICLES FOR INTRACELLULAR DELIVERY OF VIRUS” (priority 2017, published 2020).
# Where two headings read alike, the source gives them in different places. *1 amine or outer side, *2 acyl side, *3 side chain or, on linkers, in order; H or OH if unused. Where a SMILES comes first, the peptide text is derived from it. Where no end group is shown, it is not given here. Cysteamide = C(CS[*:3])N[*:1]
# Legend:
# [1] = target: Adeno-associated virus AAV-2 encoding green fluorescent protein (adeno-associated virus serotype 2) (UniProt P03135); experiment: cell-based or functional assay
# HCN2 cells [2] = experiment: AAV-1-GFP transduction with CPPs, flow cytometry; type: cell-based, human; settings: 200 μM CPP; for cells expressing GFP: AAV-1 MOI of 500, HCN2, 5% in the absence of CPP
# Protocol: (§1) In this example different AAV serotypes including AAV 1, AAV2, AAV5, AAV6, AAV8 and AAV9 were tested against human hepatocytes (HepG2) and human neuronal cells (HCN2) in the presence or in the absence of CPPs including ADGN-103a, ADGN-103b, ADGN-100, ADGN-109, ADGN-106, PEP-1, PEP-2, CADY, and TAT-HA2.
# (§2) AAV-1, AAV-2, AAV-5, and AAV-6 viruses encoding green fluorescent protein were obtained from Cell Biolabs Inc and AAV-8 from Vector Biolabs. Stock solutions of virus were obtained at 1χ10^13 GC/ml in PBS/0.01% and diluted 50-fold to 2×10^11 GC/ml before use.
# (§3) AAV-1, AAV-2, AAV-5, and AAV6 encoding green fluorescent protein were used at low MOI of 500 (1-2×10^7 PFU) and AAV-8 at MOI of 1000 (2-4×10^7 PFU). HepG2 and HCN2 cells (1 10^6 cells per well) were cultured in a 24 well plate culture dish format. For MOI of 1000, 5 μl of AAV virus diluted solutions were preincubated in PBS with increasing concentration of CPPs ranging from 0.1 to 200 μM for 30 min. For MOI of 500, 2.5 μl of AAV virus diluted solutions were preincubated in PBS with increasing concentration of CPPs ranging from 0.1 to 200 μM for 30 min. 200 μl of AAV or CPP/AAV complex solutions were added to cultured cells (1×10^6 cells per well). Cells are treated with either free AAV or CPP/AAV complexes for 4 h. and then the medium is replaced with fresh medium.
# (§4) Viral mediated transgene expression was monitored by flow cytomety 2 days post-infection in HepG2 and Human neuronal HCN2. The percentage of GFP expressing cells were detected by flow cytometry and the increase of AAV infectivity was calculated based on the number of GFP-positive cells. Results are reported in FIGS. 5A-5D, 6A-6D, 7A-7D, 8A-8D, and 9A-9D.
# HepG2 cells [3] = experiment: AAV-1-GFP transduction with CPPs, flow cytometry; type: cell-based, human; settings: 200 μM CPP, AAV-1 MOI of 500, HepG2; 5% in the absence of CPP
# Protocol: as §1, §2, §3, §4
# HCN2 cells [4] = experiment: AAV-6-GFP transduction with CPPs, flow cytometry; type: cell-based, human; settings: for increase of AAV-6 efficiency: 200 μM CPP, MOI of 500, HCN2; for cells expressing GFP: 200 μM of CPP, AAV-6 MOI of 500, HCN2, 4% in the absence of CPP
# Protocol: as §1, §2, §3, §4
# HepG2 cells [5] = experiment: AAV-6-GFP transduction with CPPs, flow cytometry; type: cell-based, human; settings: 200 μM CPP; for cells expressing GFP: AAV-6 MOI of 500, HepG2, 5% in the absence of CPP; for increase of AAV-6 efficiency: MOI of 500, HepG2
# Protocol: as §1, §2, §3, §4
# HCN2 cells [6] = experiment: AAV-2-GFP transduction with CPPs, flow cytometry; type: cell-based, human; settings: 200 μM CPP; for cells expressing GFP: AAV-2 MOI of 500, HCN2, 4% in the absence of CPP
# Protocol: as §1, §2, §3, §4
# HepG2 cells [7] = experiment: AAV-2-GFP transduction with CPPs, flow cytometry; type: cell-based, human; settings: 200 μM CPP; for cells expressing GFP: AAV-2 MOI of 500, HepG2, 4% in the absence of CPP
# Protocol: as §1, §2, §3, §4
# HCN2 cells [8] = experiment: AAV-8-GFP transduction with CPPs, flow cytometry; type: cell-based, human; settings: 200 μM CPP, AAV-8 MOI of 1000, HCN2; 5% in the absence of CPP
# Protocol: as §1, §2, §3, §4
# HepG2 cells [9] = experiment: AAV-8-GFP transduction with CPPs, flow cytometry; type: cell-based, human; settings: 200 μM CPP, AAV-8 MOI of 1000, HepG2; 5% in the absence of CPP
# Protocol: as §1, §2, §3, §4
# HepG2 cells [10] = experiment: AAV-2 transfection of HepG2 cells with TAT-HA2 or LAH4 peptides (Liu et al., Molecular Therapy, 2014); type: cell-based, human; settings: 200 μM, GFP-positive cells
# HCN2 cells [11] = experiment: AAV-5-GFP transduction with CPPs, flow cytometry; type: cell-based, human; settings: 200 μM CPP; for cells expressing GFP: AAV-5 MOI of 500, HCN2, 5% in the absence of CPP
# Protocol: as §1, §2, §3, §4
# HepG2 cells [12] = experiment: AAV-5-GFP transduction with CPPs, flow cytometry; type: cell-based, human; settings: 200 μM CPP; for cells expressing GFP: AAV-5 MOI of 500, HepG2, 5% in the absence of CPP
# Protocol: as §1, §2, §3, §4
# HepG2 cells [13] = settings: AAV-2, HepG2, Liu et al., cited from earlier work
# HUVEC cell lines = experiment: Cytotoxicity of AAV-CPP complexes, XTT assay; type: cell-based; settings: CPP concentration of 500 μM, AAV-6-βGal MOI of 300, XTT after 2 days
# Protocol: The cytoxicity of the AAV-CPP complexes was evaluated on HUVEC cell lines. AAV encoding beta galactosidase (AAV-6-βGal) at MOI of 300 were preincubated in PBS with increasing concentration of CPPs ranging from 1 to 500 μM for 30 min. Cells were treated with either free AAV (No CPP) or CPP/AAV complexes for 4 h, then the medium was replaced with fresh medium. Cytotoxicity of AAV-CPP complexes was determined using the XTT assay after 2 days. […] A low cytotoxicity of 5% for PEP-1 and PEP-2 and 8% for Pant were obtained for a CPP concentration of 500 μM.
# HepG2 and HCN2 cells [14] = experiment: AAV-5-GFP transduction with CPPs, statements for both cell lines; type: cell-based, human
# Protocol: as §1, §2, §3, §4
# HepG2 and HCN2 cells [15] = experiment: AAV-8-GFP transduction with CPPs, statements for both cell lines; type: cell-based, human
# Protocol: as §1, §2, §3, §4
# HepG2 and HCN2 cells [16] = experiment: AAV-2-GFP transduction with CPPs, statements for both cell lines; type: cell-based, human
# Protocol: as §1, §2, §3, §4
# HepG2 and HCN2 cells [17] = experiment: AAV-1-GFP transduction with CPPs, statements for both cell lines; type: cell-based, human
# Protocol: as §1, §2, §3, §4
# HepG2 and HCN2 cells [18] = experiment: AAV-6-GFP transduction with CPPs, statements for both cell lines; type: cell-based, human
# Protocol: as §1, §2, §3, §4
# [19] = target: Adeno-associated virus AAV-2 encoding green fluorescent protein (adeno-associated virus serotype 2) (UniProt P03135); experiment: cell-based or functional assay; remark: listed apart in the source
# [20] = 200 μM concentration of peptide
# [21] = 1 μM concentration, both cell lines
molecule,measurement,setting,value
PEP-1-DOPA (peptide),efficacy (GFP expressing 293 T cells) after incubation of the complexes in 50% serum,[1],30 % reduction
PEP-1-PEG (peptide),efficacy (GFP expressing 293 T cells) after incubation of the complexes in 50% serum,[1],30 % reduction
"CRRRQRRKKRGGDIMGEWGNEIFGAIAGFLG [TAT-HA2, reference compound]",cells expressing GFP,HCN2 cells [2],22%
same,increase of AAV-1 efficiency,"HCN2 cells [2]; MOI of 500, HCN2",3 fold
same,cells expressing GFP,HepG2 cells [3],27%
same,increase of AAV-6 efficiency,HCN2 cells [4],3 fold
same,cells expressing GFP,HCN2 cells [4],22%
same,cells expressing GFP,HepG2 cells [5],35%
same,increase of AAV-6 efficiency,HepG2 cells [5],about 10 fold
same,cells expressing GFP,HCN2 cells [6],20%
same,increase of AAV-2 efficiency,"HCN2 cells [6]; MOI of 500, HCN2",3 fold
same,cells expressing GFP,HepG2 cells [7],23%
same,increase of AAV-2 efficiency,"HepG2 cells [7]; MOI of 500, HepG2",5 fold
same,cells expressing GFP,HCN2 cells [8],12%
same,cells expressing GFP,HepG2 cells [9],15%
same,fold lower than the results obtained with the ADGN peptides,HepG2 cells [10],4 fold
same,cells expressing GFP,HCN2 cells [11],10%
same,increase of AAV-5 efficiency,"HCN2 cells [11]; MOI of 500, HCN2",2 fold
same,cells expressing GFP,HepG2 cells [12],11%
same,increase of AAV-5 efficiency,"HepG2 cells [12]; MOI of 500, HepG2",3 fold
same,GFP-positive cells,HepG2 cells [13]; [20],about 25%
same,GFP-positive cells,HepG2 cells [13]; concentration of CPPs,12%
CC(=O)N[C@@H](CCCCN)C(=O)N[C@@H](CCC(=O)O)C(=O)N[C@H](C(=O)N[C@@H](Cc1c[nH]c2ccccc12)C(=O)N[C@@H](Cc1ccccc1)C(=O)N[C@@H](CCC(=O)O)C(=O)N[C@H](C(=O)N[C@@H](Cc1c[nH]c2ccccc12)C(=O)N[C@@H](Cc1ccccc1)C(=O)N[C@H](C(=O)N[C@@H](CCC(=O)O)C(=O)N[C@@H](Cc1c[nH]c2ccccc12)C(=O)N[C@@H](CO)C(=O)N[C@@H](CCC(N)=O)C(=O)N1CCC[C@H]1C(=O)N[C@@H](CCCCN)C(=O)N[C@@H](CCCCN)C(=O)N[C@@H](CCCCN)C(=O)N[C@@H](CCCNC(=N)N)C(=O)N[C@@H](CCCCN)C(=O)N[C@H](C(=O)NCCS)C(C)C)[C@@H](C)O)[C@@H](C)O)[C@@H](C)O [PEP-2] (Ac-KETWFETWFTEWSQPKKKRKV-Cysteamide),cytotoxicity,HUVEC cell lines,5%
CC(=O)N[C@@H](CCCCN)C(=O)N[C@@H](CCC(=O)O)C(=O)N[C@H](C(=O)N[C@@H](Cc1c[nH]c2ccccc12)C(=O)N[C@@H](Cc1c[nH]c2ccccc12)C(=O)N[C@@H](CCC(=O)O)C(=O)N[C@H](C(=O)N[C@@H](Cc1c[nH]c2ccccc12)C(=O)N[C@@H](Cc1c[nH]c2ccccc12)C(=O)N[C@H](C(=O)N[C@@H](CCC(=O)O)C(=O)N[C@@H](Cc1c[nH]c2ccccc12)C(=O)N[C@@H](CO)C(=O)N[C@@H](CCC(N)=O)C(=O)N1CCC[C@H]1C(=O)N[C@@H](CCCCN)C(=O)N[C@@H](CCCCN)C(=O)N[C@@H](CCCCN)C(=O)N[C@@H](CCCNC(=N)N)C(=O)N[C@@H](CCCCN)C(=O)N[C@H](C(=O)NCCS)C(C)C)[C@@H](C)O)[C@@H](C)O)[C@@H](C)O [PEP-1] (Ac-KETWWETWWTEWSQPKKKRKV-Cysteamide),cytotoxicity,HUVEC cell lines,5%
"βAKWWERWWREWPRKRR (not fully specified (residue 1, N-terminus); printed as βAKWWERWWREWPRKRR) [ADGN-103b]",cells expressing GFP,HCN2 cells [2],78%
same,cells expressing GFP,HepG2 cells [3],81%
same,increase of AAV-6 efficiency,HCN2 cells [4],22 fold
same,cells expressing GFP,HCN2 cells [4],67%
same,cells expressing GFP,HepG2 cells [5],98%
same,increase of AAV-6 efficiency,HepG2 cells [5],30 fold
same,cells expressing GFP,HCN2 cells [6],81%
same,cells expressing GFP,HepG2 cells [7],96%
same,cells expressing GFP,HCN2 cells [8],58%
same,cells expressing GFP,HepG2 cells [9],60%
same,impact on AAV-5 infectivity,HepG2 and HCN2 cells [14]; [21],significant impact
same,share of the final improvement obtained at 200 μM,"HepG2 and HCN2 cells [14]; 10 μM concentration, AAV-5, both cell lines",about 50%
same,impact on AAV-8 infectivity,HepG2 and HCN2 cells [15]; [21],significant impact
same,share of the final improvement obtained at 200 μM,"HepG2 and HCN2 cells [15]; 10 μM concentration, AAV-8, both cell lines",about 60%
same,cells expressing GFP,HCN2 cells [11],48%
same,cells expressing GFP,HepG2 cells [12],64%
same,impact on AAV-2 infectivity,HepG2 and HCN2 cells [16]; [21],significant impact
same,share of the final improvement obtained with 200 μM,"HepG2 and HCN2 cells [16]; 10 μM concentration of CPP, AAV-2, both cell lines",about 70%
same,impact on AAV-1 infectivity,HepG2 and HCN2 cells [17]; [21],significant impact
same,share of the final improvement obtained with 200 μM,"HepG2 and HCN2 cells [17]; 10 μM concentration of CPP, AAV-1, both cell lines",about 60%
same,impact on AAV-6 infectivity,HepG2 and HCN2 cells [18]; [21],significant impact
same,share of the final improvement obtained at 200 μM,"HepG2 and HCN2 cells [18]; 10 μM concentration, AAV-6, both cell lines",about 70%
"KKALLALALHHLAHLALHLALALKKAC [LAH4, a leucine- and histidine-rich peptide]",fold lower than the results obtained with the ADGN peptides,HepG2 cells [10],2 fold
same,GFP-positive cells,HepG2 cells [13]; [20],~45%
same,GFP-positive cells,HepG2 cells [13]; concentration of CPPs,12%
"KETWWETWWTEWSQPKKKRKV (not fully specified (N-terminus, C-terminus)) [PEP-1 (N-acetylated, C-terminal cysteamide; Example 5)]","level of GFP expressing cells (293 T cells, flow cytometry) after 1 h incubation of the complexes in 20% serum",[19],60 % reduction
same,"level of GFP expressing cells (293 T cells, flow cytometry) after 1 h incubation of the complexes in 50% serum",[19],80 % reduction
